Source: PMC7892954, “In vivo Pharmacokinetic Drug-Drug Interaction Studies Between Fedratinib and Antifungal Agents Based on a Newly Developed and Validated UPLC/MS-MS Method” (Frontiers in Pharmacology, 2021)
Read-outs that look alike come from different tables or passages of the source.

Experiments:
[1] = DDI study: pharmacokinetics of fedratinib in rats with or without antifungal drugs; format: in vivo, Sprague-Dawley (SD) rats; conditions: for AUC(0-inf) / AUC(0-t) / Cmax / Tmax / half-life / CL/F / MRT last / MRT inf: male, Sprague-Dawley, rat, plasma, po, 40 mg/kg, 40 mg/kg fedratinib oral gavage, n = 6, Mean ± SD; for CL/F: read-out: CLz/F (converted); for MRT last: read-out: MRT0→t; for MRT inf: read-out: MRT0→∞
Excerpt: The UPLC-MS/MS procedures were developed and validated to detect fedratinib concentration in plasma to support an investigational study in healthy male Sprague-Dawley (SD) rats (weighing 200 ± 20 g), which were purchased from Laboratory Animal Center of Wenzhou Medical University (Wenzhou, China). The protocols and procedures of the animal experiment were checked in accordance with the regulations defined by Wenzhou Medical University Animal Care and Use Committee (wydw 2018-0002). Before experiment, rats were housed in the environmentally controlled feeding room, and had free access to the water and food.
After 30 min, each rat was administered 40 mg/kg fedratinib by oral gavage. Then, at the time points of 0, 0.333, 0.667, 1, 2, 4, 6, 9, 12, 24, and 48 h, heparinized 1.5 ml polythene tubes were used to collect the blood samples with approximate volume of 0.3 ml. Subsequently, plasma sample (100 µL) was separated and gained after centrifugation of the whole blood samples at room temperature for 10 min with the speed of 4,000 g, and all the plasma samples were placed and held at −80 °C prior to analysis.
Drug and Statistics (DAS) 2.0 software (Shanghai University of Traditional Chinese Medicine, China) was used to analysis the main pharmacokinetic parameters of fedratinib in rats through non-compartmental approach. The comparisons of the main pharmacokinetic parameters of different groups were conducted in one-way analysis of variance equipped with the Dunnett’s test by Statistical Package for the Social Sciences (SPSS Inc., Chicago, IL, United States) version 17.0 software. In any case, if the value of p was below 0.05, it was deemed to be statistically significant.

[2] = healthy volunteers, 2015, cited from earlier work
[3] = Stability of fedratinib in rat plasma under different conditions (UPLC-MS/MS); format: in vitro ADME; conditions: for Stability RE (%): n = 5
Experimental: The stability of the analyte in rat plasma under various conditions at LQC and HQC concentration levels (n = 5) was assessed, which were subjected to at room temperature for about 2 h, in the auto-sampler for 6 h at 10 °C prior to analysis, three freeze-thaw cycles (−80 °C to room temperature), and also storage at −80 °C for 21 days. The stability results of this assay in rat plasma should be acceptable when five replicates of QC samples at LQC and HQC concentrations were evaluated and compared with the real concentrations.

[4] = design: method as in Ogasawara et al., 2020; conditions: a strong CYP3A4 inhibitor, ref Ogasawara et al., 2020; cited from earlier work
[5] = 20 mg/kg antifungal 30 min before 40 mg/kg fedratinib oral
[6] = Group A: control (0.5% CMC-Na) 30 min before
[7] = Group B: 20 mg/kg isavuconazole 30 min before
[8] = Group C: 20 mg/kg posaconazole 30 min before
[9] = Group D: 20 mg/kg fluconazole 30 min before
[10] = Group E: 20 mg/kg itraconazole 30 min before

CCC(C)n1ncn(-c2ccc(N3CCN(c4ccc(OCC5COC(Cn6cncn6)(c6ccc(Cl)cc6Cl)O5)cc4)CC3)cc2)c1=O (stereo not drawn) [itraconazole]
Order of inhibitory effect on fedratinib metabolism [1, 5]: fluconazole > itraconazole > isavuconazole > posaconazole

Cc1cnc(Nc2ccc(OCCN3CCCC3)cc2)nc1Nc1cccc(S(=O)(=O)NC(C)(C)C)c1 [Fedratinib]
Impact of pantoprazole on the pharmacokinetics of fedratinib ([2]; 40 mg pantoprazole once daily with a single dose of 500 mg fedratinib, ref Xu et al.): no significantly impact
Effect of intake of food on pharmacokinetics and bioavailability of fedratinib ([2]; ref Zhang et al.): slightly affect
Key pharmacokinetic parameters (AUC0→t, AUC0→∞, MRT0→t, MRT0→∞, t1/2, Tmax, CLz/F, Cmax) compared with control Group A ([1]; fedratinib co-administrated with posaconazole (Group C)): no significant differences
AUC(0-inf) [1, 6]: 2150 ± 396 ng·h/mL
AUC(0-t) [1, 6]: 2010 ± 309 ng·h/mL
Cmax [1, 6]: 101 ± 12.9 ng/mL
Tmax [1, 6]: 5.43 ± 0.98 h
half-life [1, 6]: 11.1 ± 2.72 h
CL/F [1, 6]: 320 mL/min/kg
MRT last [1, 6]: 14.4 ± 1.41 h
MRT inf [1, 6]: 15.6 ± 1.65 h
AUC(0-inf) [1, 7]: 2720 ± 427 ng·h/mL
AUC(0-t) [1, 7]: 2590 ± 406 ng·h/mL
Cmax [1, 7]: 123 ± 17.2 ng/mL
Tmax [1, 7]: 6.4 ± 1.34 h
half-life [1, 7]: 11.1 ± 2.9 h
CL/F [1, 7]: 247 mL/min/kg
MRT last [1, 7]: 14.9 ± 0.87 h
MRT inf [1, 7]: 15.5 ± 1.34 h
AUC(0-inf) [1, 8]: 2510 ± 260 ng·h/mL
AUC(0-t) [1, 8]: 2320 ± 202 ng·h/mL
Cmax [1, 8]: 98.1 ± 16.6 ng/mL
Tmax [1, 8]: 6 ± 1.08 h
half-life [1, 8]: 11.8 ± 2.9 h
CL/F [1, 8]: 277 mL/min/kg
MRT last [1, 8]: 14.3 ± 1.21 h
MRT inf [1, 8]: 14.6 ± 1.32 h
AUC(0-inf) [1, 9]: 3890 ± 680 ng·h/mL
AUC(0-t) [1, 9]: 3800 ± 653 ng·h/mL
Cmax [1, 9]: 232 ± 33.1 ng/mL
Tmax [1, 9]: 7.8 ± 1.64 h
half-life [1, 9]: 10.9 ± 2.38 h
CL/F [1, 9]: 176 mL/min/kg
MRT last [1, 9]: 13.4 ± 1.3 h
MRT inf [1, 9]: 13.9 ± 1.36 h
AUC(0-inf) [1, 10]: 3320 ± 383 ng·h/mL
AUC(0-t) [1, 10]: 3130 ± 317 ng·h/mL
Cmax [1, 10]: 187 ± 22.2 ng/mL
Tmax [1, 10]: 7.2 ± 1.64 h
half-life [1, 10]: 10.2 ± 3.39 h
CL/F [1, 10]: 204 mL/min/kg
MRT last [1, 10]: 14.5 ± 1.95 h
MRT inf [1, 10]: 15.2 ± 2.1 h
Stability RE (%) ([3]; 1.5 ng/ml, Auto-sampler 10°C, 6 h): 8.3%
Stability RE (%) ([3]; 1.5 ng/ml, Room temperature, 2 h): 14.1%
Stability RE (%) ([3]; 1.5 ng/ml, Three freeze-thaw (−80 °C to room temperature)): −4.6%
Stability RE (%) ([3]; 1.5 ng/ml, −80°C, 21 days): 2.7%
Stability RE (%) ([3]; 400 ng/ml, Auto-sampler 10°C, 6 h): 11.4%
Stability RE (%) ([3]; 400 ng/ml, Room temperature, 2 h): 10.3%
Stability RE (%) ([3]; 400 ng/ml, Three freeze-thaw (−80 °C to room temperature)): 12.5%
Stability RE (%) ([3]; 400 ng/ml, −80°C, 21 days): 14.2%
Deviation from nominal concentrations (stability) ([3]; LQC and HQC, all four storage conditions): < 15%
Effect of ketoconazole on systemic exposure of fedratinib [4]: increases the systemic exposure of fedratinib

C[C@@H](c1nc(-c2ccc(C#N)cc2)cs1)[C@](O)(Cn1cncn1)c1cc(F)ccc1F [isavuconazole]
Inhibitory effect on fedratinib metabolism [1, 5]: inhibitory effect on fedratinib metabolism to a certain extent
Order of inhibitory effect on fedratinib metabolism [1, 5]: fluconazole > itraconazole > isavuconazole > posaconazole

CC[C@@H]([C@H](C)O)n1ncn(-c2ccc(N3CCN(c4ccc(OC[C@@H]5CO[C@@](Cn6cncn6)(c6ccc(F)cc6F)C5)cc4)CC3)cc2)c1=O [posaconazole]
Order of inhibitory effect on fedratinib metabolism [1, 5]: fluconazole > itraconazole > isavuconazole > posaconazole
